In US9855259B2, “Processes of making and crystalline forms of a MDM2 inhibitor” (AMGEN INC., priority 2013, dated 2018):
Structures can show the parent of a compound that is named as a salt.

Experiment: room-temperature solubility in toluene
Type: physicochemical
Conditions: organic solvent or mixture, 1-naphthalene sulfonate counterion

Compound: C=CC[C@@]1(C)C[C@H](c2cccc(Cl)c2)[C@@H](c2ccc(Cl)cc2)[N+]2=C1OC[C@@H]2C(C)C [oxoiminium salt, (3S,5S,6R,8S)-8-Allyl-6-(3-chlorophenyl)-5-(4-chlorophenyl)-3-isopropyl-8-methyl-2,3,5,6,7,8-hexahydrooxazolo[3,2-a]pyridin-4-ium naphthalene-1-sulfonate]
- solubility: < 10000 µg/mL
